Laboratory results reported in US20240024287A1, “APPLICATION OF ANLE138B IN DRUG FOR IMPROVING DIET-INDUCED INSULIN RESISTANCE” (The First Affiliated Hospital of Shantou University Medical …, priority 2022, published 2024).
Values joined by “and” are separate entries in the source; they are usually repeats but may differ in a detail not shown here. Identical values can stand only once. Marks after values point to notes of the source that are not given here.

Legend:
[1] = test system: high-fructose-induced rat insulin resistance models; assay: High-fructose-induced rat insulin resistance model, therapeutic administration; format: in vivo
Text: (§1) 8-week-old male […] were selected as experimental animals. The rats were adaptively fed for 1 week after purchase, and then weighed for the fasting body weight. The healthy rats weighing 22-24 g were selected and randomly divided into groups according to the experimental flow design. (1) The rats were fed with normal feed and high-fructose feed for 8 weeks; (2) the rats were fed with high-fat feed for 12 weeks; (3) the rats were fed with high-fat feed for 8 weeks as a preventive experiment. Fasting body weights were measured and recorded regularly every week, and the rats were guaranteed to have free access to water and food during feeding. The food intake, water intake, and free movement of the model rats were continuously observed, and the rats with stunted growth, rough hair, and rickety posture after eating high-fructose and high-fat diets were screened out. In the experiment later, the rats were fed with normal feed or high-fructose/high-fat feed during the 2 weeks of intraperitoneal injection to ensure the consistency before and after administration.
(§2) Anle138b solutions: The drug doses required for 1 week of intervention for each group of rats were calculated, Anle138b drug concentrations of 1 mg/kg (0.01%), 3 mg/kg (0.03%) and 5 mg/kg (0.05%) were prepared, Anle138b powder was weighed and then added in 10% DMSO, 40% PEG300, 5% Tween-80 and 45% saline in sequence, each mixture was evenly blended by vortex into a clear solution, and each Anle138b solution was separately bottled according to the daily dose and stored in a refrigerator at 4° C.
L-THP solution: The drug dose required for 1 week of intervention for each group of rats was calculated, L-THP drug concentrations of 3 mg/kg (0.03%) was prepared, light yellow L-THP powder was weighed and then added in 10% DMSO, 40% PEG300, 5% Tween-80 and 45% saline in sequence, each mixture was evenly blended by vortex into a clear solution, and each Anle138b solution was separately bottled according to the daily dosage and stored in a refrigerator at 4° C.
(§3) The 8-week-old adult rats were modeled by changing the diets after 1 week of adaptive feeding. Blood was collected from the right orbital venous plexus with a glass tube at 8 weeks and 12 weeks after model establishment and after fasting (>12 h), and blood glucose levels were measured with a blood glucose tester (Sannuo GA-3); and the insulin resistance mode was judged by the subsequent determination of metabolic indexes, such as glucose tolerance test by intraperitoneal injection, fasting serum insulin (enzyme-linked immunosorbent assay, Raybiotech), serum triglyceride (GPO-PAP single-reagent microplate method, Nanjing Jiancheng) and cholesterol ([…] single-reagent microplate method, Nanjing Jiancheng).
The rats were fed with 60% high-fructose diet for 8 weeks to establish insulin resistance models, and the rats fed with normal diet provided by the animal room of Shantou University Medical College were used as controls. After fasting, orbital blood was collected, and fasting blood glucose, serum insulin, glucose tolerance were determined to judge whether the modeling was successful. According to an insulin resistance index (HOMA-IR) as the core judgment index, the successfully modeled rats were enrolled by screening the IR index of >3 and randomly divided into groups to explore the influence of different concentrations of Anle138b on the rat insulin resistance models. The concentration gradients for different groups were 0 mg/kg (injection solvent, namely the model control group), 1 mg/kg, 3 mg/kg and 5 mg/kg clear Anle138b solution, as well as the L-THP 3 mg/kg positive drug control group. The rats were administrated by intraperitoneal injection for 2 weeks continuously, once a day.
The insulin resistance value was calculated in combination with the method for calculating the insulin resistance index (HOMA-IR) in the homeostasis model assessment method. […]

[2] = test system: high-fat-induced rat insulin resistance model; assay: High-fat-induced rat insulin resistance model, preventive administration; format: in vivo, C57BL/6J rats; settings: high-fat diet, preventive 5 mg/kg
Text: as §1
(§4) A total energy-to-mass ratio was 4.73 kcal/g. The feed was provided by Beijing Huafukang Biotechnology Co., Ltd.
as §2, §3
Rats fed with high-fat diet for 5 weeks were randomly divided into high-fat feeding control group (n=6) and drug intervention group with Anle138b 5 mg/kg, and the rats were administered for 3 weeks continuously, once every two days.

[3] = test system: high-fat-induced rat insulin resistance models; assay: Anle138b treatment versus paired-feed (PF) group in high-fat rat insulin resistance models; format: in vivo; settings: high-fat model, 5 mg/kg, compared with PF group
Procedure: The rats fed with high-fat diet for 8 weeks were divided into paired-feed group (n=7) (the food intake was the same as that of high-fat Anle138b 5 mg/kg/d) and control group continuously fed with high-fat diet.
Pair-feed (PF) group: the pair-feed group was set according to the daily food intake in the high-fat group after intervention with Anle138b 5 mg/kg, the rats were given the same amount of high-fat diet every day, and the changes in the body weight and the metabolic indexes were measured.

[4] = test system: high-fat-induced rat insulin resistance models; assay: High-fat-induced rat insulin resistance model, therapeutic administration; format: in vivo
Text: as §1, §4, §2, §3
The rat IR models were randomly divided into two groups, the rats were administrated with Anle138b 3 mg/kg (n=6, 0.03%) and 5 mg/kg (n=6, 0.05%) for 2 weeks continuously, once a day.
After the models were determined to be successful, the average value of food intake of each rat in the first two days was taken as its own food intake base. After the drug intervention, the daily food intake and body weight were measured and compared with their own bases for comparison of the standardized food intake and body weight of each rat. […]

normal rats = assay: Normal rats given Anle138b (normal drug / drug control group); format: in vivo; settings: 3 mg/kg i.p., 2 weeks
Text: as §1, §2, §3
(1) The normal rats were randomly divided into two groups: blank control group (n=6) and drug control group (n=7); the rats in the normal control group were intraperitoneally injected with a similar volume of solvent and Anle138b (3 mg/kg, 0.03%) according to the body weight for 2 weeks.

[5] = 1 mg/kg i.p. once a day, 2 weeks
[6] = 3 mg/kg i.p. once a day, 2 weeks
[7] = 5 mg/kg i.p. once a day, 2 weeks
[8] = 2 weeks, with increase of drug concentration
[9] = 3 mg/kg/d, 2 weeks, 3 mg/kg/day
[10] = 5 mg/kg/d, 2 weeks, 5 mg/kg/day

## Brc1cccc(-c2cc(-c3ccc4c(c3)OCO4)[nH]n2)c1 [Anle138b]
[1]; [5]
  Body Weight After Administration: 25.58 ± 1.555* * g
  Fasting Blood Glucose: 5.100 ± 0.65 # mmol/L
  Fasting Insulin: 48.97 ± 1.38 μIU/mL
  HOMA-IR: 11.3 ± 1.78 μIU/mL*mmol/L
[1]; 1 mg/kg i.p., 2 weeks
  Glucose tolerance test area under curve (AUC): 1,307±46.38 min*mmol/L
  Right epididymal fat weight index (fat weight/fasting body weight): 0.008918±0.0003788
[1]; [6]
  Body Weight After Administration: 25.51 ± 0.8009 g
  Fasting Blood Glucose: 5.300 ± 0.89 mmol/L
  Fasting Insulin: 21.46 ± 10.36 # μIU/mL
  HOMA-IR: 5.438 ± +2.13 # μIU/mL*mmol/L
[1]; 3 mg/kg i.p., 2 weeks
  Right epididymal fat weight index (fat weight/fasting body weight): 0.007657±0.002366
[1]; [7]
  Body Weight After Administration: 24.25 ± +2.652 g
  Fasting Blood Glucose: 4.675 ± 0.95 # mmol/L
  Fasting Insulin: 25.74 ± 12.24 # μIU/mL
  HOMA-IR: 5.827 ± 3.78 # μIU/mL*mmol/L
[1]; 5 mg/kg i.p., 2 weeks
  Glucose tolerance test area under curve (AUC): 1,261±103.2 min*mmol/L
  Right epididymal fat weight index (fat weight/fasting body weight): 0.007971±0.00142
[1]; [8]
  Epididymal adipose tissue pathomorphism, HE staining: the adipocytes were reduced in sizes and arranged regularly
[1]; different concentrations, dose-dependent
  Liver pathomorphism, HE staining: the hepatic steatosis was significantly alleviated
[2]
  Adipose tissue pathomorphism, HE staining: relieved the structural disorder of the adipose tissue
  Daily feeding efficiency: −0.03518±0.02726
  Fasting Blood Glucose: 6.313 ± 0.63 mmol/L
  Fasting Insulin: 22.09±6.49 μIU/mL
  Fat weight index: 0.01195±0.003
  Glucose tolerance test area under curve (AUC): 1,269±74 min*mmol/L
  Insulin Resistance Index: 6.880±2.73 μIU/mL*mmol/L
  Liver weight index: 0.03763±0.001
  Pancreas pathomorphism, HE staining: significantly inhibit the steatosis of pancreatic acinar cells
  Total Cholesterol: 3.383 ± 0.21 mmol/L
  Triglyceride: 0.4687 ± 0.05 mmol/L
[2]; 3 weeks, once every two days
  Body weight at end point of prevention experiment: 25.8 ± 0.67 g
  Food intake: 1.805±0.19 g/rat
[3]
  Average body weight: 28.23 ± 0.66 g
  Fasting Blood Glucose: 4.87 ± 0.36 mmol/L
  Feeding efficiency: −0.015±0.013
  Triglyceride: 0.52 ± 0.06 mmol/L
[4]; 3 mg/kg
  Fat weight index: 0.01317±0.004212
  Feeding efficiency (daily body weight change/energy consumption): −0.007788±0.01949 g/calories/rat/day
  Glucose tolerance test area under curve (AUC): 1,203±155.6 min*mmol/L
  Liver weight index: 0.04475±0.003
[4]; 3 mg/kg and 5 mg/kg
  Liver pathomorphism, HE staining: the hepatic steatosis was significantly alleviated
[4]; 3 mg/kg and 5 mg/kg, as the dose increases
  Pancreas pathomorphism, HE staining: the acinar steatosis was significantly alleviated
[4]; 3 mg/kg once a day, 2 weeks
  Average daily food intake: 1.946 ± 0.4777 g/day
  Body weight after intervention: 28.97 ± 1.657 g
[4]; [9]
  Fasting Blood Glucose: 5.283 ± 0.74 mmol/L
  Fasting Insulin: 55.24±28.94 μIU/mL
  Insulin Resistance Index: 11.6±5.044 μIU/mL*mmol/L and 11.6 ± 5.04 μIU/mL*mmol/L
  Triglyceride: 0.5138 ± 0.06 mmol/L
[4]; 5 mg/kg
  Fat weight index: decreased
  Feeding efficiency (daily body weight change/energy consumption): −0.01528±0.01287 g/calories/rat/day
  Glucose tolerance test area under curve (AUC): 1,059±153.2 min*mmol/L
  Liver weight index: 0.04344±0.0026
[4]; 5 mg/kg once a day, 2 weeks
  Body weight after intervention: 28.9 ± 1.685 g
[4]; 5 mg/kg once a day, 2 weeks, P<0.001
  Average daily food intake: significantly lower than that of the model group
[4]; [10]
  Fasting Blood Glucose: 4.867 ± 0.36 mmol/L
  Fasting Insulin: 36.27±16.53 μIU/mL
  Insulin Resistance Index: 8.446±3.617 μIU/mL*mmol/L and 8.446 ± 3.62 μIU/mL*mmol/L
  Triglyceride: 0.5164 ± 0.06 mmol/L
[4]; [8]
  Epididymal adipose tissue pathomorphism, HE staining: the adipocytes were reduced in sizes and arranged regularly
[4]; drug intervention 2 weeks
  Skeletal muscle pathomorphism, HE staining: the intermuscular steatosis was relieved
Normal rats
  Body Weight After Administration: 25.65 ± 0.7842 g
  Fasting Blood Glucose: 3.650 ± 0.33 mmol/L
Normal rats; 3 mg/kg
  Fasting Insulin: 15.08±13.14 μIU/mL
  HOMA-IR: 1.1689±1.153 μIU/mL*mmol/L and 1.1689 ± 1.15 μIU/mL*mmol/L

## COc1cc2c(cc1OC)[C@@H]1Cc3ccc(OC)c(OC)c3CN1CC2 [L-THP, reference compound]
[1]; [6]
  Body Weight After Administration: 24.24 ± 1.255 g
  Fasting Blood Glucose: 4.967 ± 0.39 # mmol/L
  Fasting Insulin: 24.76 ± 9.70 # # μIU/mL
  HOMA-IR: 6.029 ± 3.33 # μIU/mL*mmol/L
[1]; 3 mg/kg i.p., 2 weeks
  Right epididymal fat weight index (fat weight/fasting body weight): 0.00751±0.002279
